# According to ChEMBL document CHEMBL1151600, “6-Bromo-3-nitroflavone, a new high affinity benzodiazepine receptor agonist recognizes two populations of cerebral cortical binding sites” (Bioorg Med Chem Lett, 1997):
# The source made the active and inactive calls. No cut-off for these calls is given here.
# What was measured:
# Mus musculus [1] = test: Anxiolytic activity in mice at 100 ug/kg; assay type: functional
# [2] = target: GABA-A receptor; anion channel; test: Inhibition of [3H]flunitrazepam [3H]FNZ) binding to GABA-A Benzodiazepine receptor of synaptosomal membranes from rat cerebral cortex; assay type: tissue-based
# [3] = target: GABA-A receptor; anion channel; test: Inhibition of [3H]flunitrazepam [3H]FNZ) binding to GABA-A Benzodiazepine receptor of synaptosomal membranes from rat hippocampus
# [4] = target: GABA-A receptor; anion channel (Rattus norvegicus) (UniProt O09028+P15431+P18506+P18508+P19969+P20236+P23574+P23576+P28471+P28473+P30191+P62813+P63079+P63138+Q91ZM7+Q9ES14); test: Inhibition of [3H]flunitrazepam [3H]FNZ) binding to GABA-A benzodiazepine receptor of cortical membranes +/- 100 uM GABA (Partial agonist)
# [5] = target: GABA-A receptor; anion channel; test: Inhibition of [3H]flunitrazepam [3H]FNZ) binding to GABA-A Benzodiazepine receptor of synaptosomal membranes from rat spinal cord; assay type: tissue-based
# [6] = target: GABA-A receptor; anion channel; test: Inhibition of [3H]flunitrazepam [3H]FNZ) binding to GABA-A Benzodiazepine receptor of synaptosomal membranes from rat striatum
# Mus musculus [7] = test: Anxiolytic activity in mice at 0.01 to 0.3 mg/kg intraperitoneal administration; assay type: functional, organism-based
# [8] = target: GABA-A receptor; anion channel; test: Inhibition of [3H]zolpidem binding to GABA-A Benzodiazepine receptor of synaptosomal membranes from rat cerebellum; assay type: tissue-based
# [9] = target: GABA-A receptor; anion channel; test: Inhibition of [3H]flunitrazepam [3H]FNZ) binding to GABA-A Benzodiazepine receptor of synaptosomal membranes from rat cerebellum; assay type: tissue-based
# [10] = target: GABA-A receptor; anion channel; test: Inhibition of [3H]zolpidem binding to GABA-A Benzodiazepine receptor of synaptosomal membranes from rat cerebral cortex; assay type: tissue-based
SMILES,Anxiolytic activity (Mus musculus [1]),Ki [2],Ki [3],GABA shift [4],Ki [5],Ki [6],Anxiolytic affect (Mus musculus [7]),Ki [8],Ki [9],Ki [10]
CN1C(=O)CN=C(c2ccccc2)c2cc(Cl)ccc21 [DIAZEPAM],35,,,,,,,,,
O=c1cc(-c2ccc([N+](=O)[O-])cc2)oc2ccc(Br)cc12,,220 nM,,,,,,,,
O=c1cc(-c2cccc([N+](=O)[O-])c2)oc2ccc(Br)cc12,,1.2 nM,9.6 nM,1.38,12.7 nM,9.8 nM,Active,3 nM,3.6 nM,3.8 nM
